Experimental data taken from patent US9469650B2, “Melampomagnolide B derivatives” (BOARD OF TRUSTEES OF THE UNIVERSITY OF ARKANSAS, priority 2013, dated 2016).

Tests used:
[1] = test system: OVCAR-8
[2] = test system: BT-549
[3] = test system: MDA-MB-435
[4] = test system: NCI-H322M
[5] = test system: SK-MEL-2
[6] = test system: SK-OV-3
[7] = test system: MOLT-4
[8] = test system: MDA-MB-231/ATCC
[9] = test system: A498
[10] = test system: HOP-92
[11] = test system: MALME-3M
[12] = test system: SK-MEL-28
[13] = test system: NCI/ADR-RES
[14] = test system: RXF 393
[15] = test system: UO-31
[16] = test system: HT29
[17] = test system: LOX IMVI
[18] = test system: HOP-62
[19] = test system: SK-MEL-5
[20] = test system: SF-295
[21] = test system: SNB-75
[22] = test system: MALME-3M; assay: panel of 60 human tumor cell lines, growth inhibition (Melanoma); details: MALME-3M
[23] = test system: SF-268
[24] = test system: SN12C
[25] = test system: HCT-15
[26] = test system: PC-3
[27] = test system: SR
[28] = test system: M14
[29] = test system: HCC-2998
[30] = test system: T-47D
[31] = test system: DU-145
[32] = test system: HS 578T
[33] = test system: NCI-H460
[34] = test system: UACC-62
[35] = test system: NCI-H522
[36] = test system: K-562
[37] = test system: SW-620
[38] = test system: U251
[39] = test system: IGROV1
[40] = test system: OVCAR-5
[41] = test system: 786-0
[42] = test system: SNB-19
[43] = test system: CAKI-1
[44] = test system: CCRF-CEM
[45] = test system: TK-10

## C=C1C(=O)O[C@H]2[C@H]1CC/C(COC(=O)NCCO)=C\CC[C@@]1(C)O[C@@H]21 [JVM 2-50]
[1]
  CC50: > 100 µM
[2]
  CC50: 42.9 µM
[3]
  CC50: 52 µM
[4]
  CC50: > 100 µM
[5]
  CC50: 94.4 µM
[6]
  CC50: > 100 µM
[7]
  CC50: > 100 µM
[8]
  CC50: 75.5 µM
[9]
  CC50: > 100 µM
[10]
  CC50: 42.3 µM
[11]
  CC50: 73.3 µM
[12]
  CC50: 79.4 µM
[13]
  CC50: > 100 µM
[14]
  CC50: 62.5 µM
[15]
  CC50: 77.1 µM
[16]
  CC50: ≥ 100 µM
[17]
  CC50: 57.1 µM
[18]
  CC50: > 100 µM
[19]
  CC50: > 100 µM
[20]
  CC50: > 100 µM
[21]
  CC50: > 100 µM
[22]; Log10 Concentration −4.0
  Percent Growth: −67%
[22]; Log10 Concentration −5.0
  Percent Growth: 58%
[22]; Log10 Concentration −6.0
  Percent Growth: 110%
[22]; Log10 Concentration −7.0
  Percent Growth: 111%
[22]; Log10 Concentration −8.0
  Percent Growth: 107%
[22]; NCI five dose
  GI50: 11.5 µM
  TGI: 2.91E−5
[23]
  CC50: 99.1 µM
[24]
  CC50: > 100 µM
[25]
  CC50: 57.5 µM
[26]
  CC50: > 100 µM
[27]
  CC50: > 100 µM
[28]
  CC50: 88.3 µM
[29]
  CC50: 77.2 µM
[30]
  CC50: 87.4 µM
[31]
  CC50: 52.8 µM
[32]
  CC50: > 100 µM
[33]
  CC50: > 100 µM
[34]
  CC50: 58.3 µM
[35]
  CC50: 9.13 µM
[36]
  CC50: > 100 µM
[37]
  CC50: 74 µM
[38]
  CC50: > 100 µM
[39]
  CC50: > 100 µM
[40]
  CC50: 92.4 µM
[41]
  CC50: 66.4 µM
[42]
  CC50: > 100 µM
[43]
  CC50: 73.8 µM
[44]
  CC50: > 100 µM
[45]
  CC50: 52.3 µM

## C=C1C(=O)O[C@H]2[C@H]1CC/C(COC(=O)N1CCC(F)(F)CC1)=C\CC[C@@]1(C)O[C@@H]21 [JVM 2-66]
[1]
  CC50: 38.5 µM
[2]
  CC50: 29.5 µM
[3]
  CC50: 95.1 µM
[4]
  CC50: 54.6 µM
[5]
  CC50: 37 µM
[6]
  CC50: 63.8 µM
[7]
  CC50: > 100 µM
[8]
  CC50: 30.7 µM
[9]
  CC50: 28.9 µM
[10]
  CC50: 11.1 µM
[11]
  CC50: 21.6 µM
[12]
  CC50: 33 µM
[13]
  CC50: 69.5 µM
[14]
  CC50: 5.33 µM
[15]
  CC50: 22.2 µM
[16]
  CC50: 40.3 µM
[17]
  CC50: 22.5 µM
[18]
  CC50: 58.3 µM
[19]
  CC50: 40.3 µM
[20]
  CC50: 51.5 µM
[21]
  CC50: 47.2 µM
[22]
  GI50: 1.9 µM
  TGI: 4.82E−6
[22]; Log10 Concentration −4.0
  Percent Growth: −72%
[22]; Log10 Concentration −5.0
  Percent Growth: −39%
[22]; Log10 Concentration −6.0
  Percent Growth: 84%
[22]; Log10 Concentration −7.0
  Percent Growth: 91%
[22]; Log10 Concentration −8.0
  Percent Growth: 99%
[23]
  CC50: 56.5 µM
[24]
  CC50: 37.7 µM
[25]
  CC50: 10 µM
[26]
  CC50: 53.8 µM
[27]
  CC50: > 100 µM
[28]
  CC50: 41.7 µM
[29]
  CC50: 57.9 µM
[30]
  CC50: > 100 µM
[31]
  CC50: 28.9 µM
[32]
  CC50: > 100 µM
[33]
  CC50: 72.6 µM
[34]
  CC50: 23.2 µM
[35]
  CC50: 6.08 µM
[36]
  CC50: > 100 µM
[37]
  CC50: 17.9 µM
[38]
  CC50: 52.1 µM
[39]
  CC50: 59.7 µM
[40]
  CC50: 48.1 µM
[41]
  CC50: 48.6 µM
[42]
  CC50: 62.7 µM
[43]
  CC50: 23.8 µM
[44]
  CC50: 67.6 µM
[45]
  CC50: 23.5 µM

## C=C1C(=O)O[C@H]2[C@H]1CC/C(COC(=O)N1CCN(C)CC1)=C\CC[C@@]1(C)O[C@@H]21 [JVM 2-44]
[1]
  CC50: 80.6 µM
[2]
  CC50: 49 µM
[3]
  CC50: 57.5 µM
[4]
  CC50: > 100 µM
[5]
  CC50: 75.3 µM
[6]
  CC50: > 100 µM
[7]
  CC50: > 100 µM
[8]
  CC50: 67 µM
[9]
  CC50: > 100 µM
[10]
  CC50: 44.3 µM
[11]
  CC50: 65.4 µM
[12]
  CC50: 56.5 µM
[13]
  CC50: > 100 µM
[14]
  CC50: 48.6 µM
[15]
  CC50: 47.6 µM
[16]
  CC50: 62 µM
[17]
  CC50: 55.9 µM
[18]
  CC50: > 100 µM
[19]
  CC50: 58.7 µM
[20]
  CC50: > 100 µM
[21]
  CC50: 61.2 µM
[22]
  GI50: 3.33 µM
  TGI: 1.20E−5
[22]; Log10 Concentration −4.0
  Mean Optical Densities: 0.168
  Percent Growth: −63%
[22]; Log10 Concentration −5.0
  Mean Optical Densities: 0.461
  Percent Growth: 5%
[22]; Log10 Concentration −6.0
  Mean Optical Densities: 0.705
  Percent Growth: 99%
[22]; Log10 Concentration −7.0
  Mean Optical Densities: 0.680
  Percent Growth: 89%
[22]; Log10 Concentration −8.0
  Mean Optical Densities: 0.702
  Percent Growth: 98%
[23]
  CC50: 75.7 µM
[24]
  CC50: 69.7 µM
[25]
  CC50: 56.6 µM
[26]
  CC50: > 100 µM
[27]
  CC50: > 100 µM
[28]
  CC50: 69.9 µM
[29]
  CC50: 71.9 µM
[30]
  CC50: 82.3 µM
[31]
  CC50: 48.7 µM
[32]
  CC50: > 100 µM
[33]
  CC50: > 100 µM
[34]
  CC50: 54.1 µM
[35]
  CC50: 8.2 µM
[36]
  CC50: > 100 µM
[37]
  CC50: 58.3 µM
[38]
  CC50: 88.7 µM
[39]
  CC50: 76 µM
[40]
  CC50: 68.6 µM
[41]
  CC50: 72.3 µM
[42]
  CC50: > 100 µM
[43]
  CC50: 42.8 µM
[44]
  CC50: > 100 µM
[45]
  CC50: 41.6 µM
